# Experimental data reported in ChEMBL document CHEMBL5390204, “Persephacin Is a Broad-Spectrum Antifungal Aureobasidin Metabolite That Overcomes Intrinsic Resistance in Aspergillus fumigatus” (J Nat Prod, 2023).
# The source made the active and inactive calls. The calls are words filed in the database; no cut-off is given here.
# Legend:
# Kodamaea ohmeri = experiment: Antifungal activity against multidrug-resistant Kodamaea ohmeri 396 assessed as inhibition in fungal growth incubated for 48 hrs by microplate reader analysis; type: functional
# Candida parapsilosis = experiment: Antifungal activity against Candida parapsilosis ATCC 22019 (Y-12969) assessed as reduction in fungal growth incubated for 48 hrs by microplate reader analysis; type: functional; conditions: Lodderomyces parapsilosis
# Paecilomyces lilacinus = experiment: Antifungal activity against Paecilomyces lilacinus 165E10 assessed as reduction in fungal growth incubated for 48 hrs by microplate reader analysis; type: functional; conditions: Purpureocillium lilacinum
# Aspergillus fumigatus [1] = experiment: Antifungal activity against Aspergillus fumigatus ATCC MYA-3627 assessed as inhibition in fungal growth incubated for 48 hrs in presence of 5% serum by microplate reader analysis; type: functional
# Candida albicans [2] = experiment: Antifungal activity against Candida albicans SC5314 infected in pig cornea assessed as suppression of fungal growth at 0.1 % administered post fungal infection measured after 4 days by microscopic analysis; type: functional, organism-based; conditions: time 4.0 day
# Candida albicans [3] = experiment: Antifungal activity against fluconazole-resistant Candida albicans SC5314 infected in pig cornea assessed as suppression of fungal growth at 0.1 % administered post fungal infection measured after 4 days by microscopic analysis; type: functional, organism-based; conditions: time 4.0 day
# Aspergillus fumigatus [4] = experiment: Antifungal activity against Aspergillus fumigatus NRRL5109 infected in pig cornea assessed as suppression of fungal growth at 0.1 % administered post fungal infection measured after 4 days by microscopic analysis; type: functional, organism-based; conditions: time 4.0 day
# [5] = Toxicity against human skin model at 10 to 1000 uM; type: tissue-based, Skin of body; conditions: dose 10-1000 µM
# [6] = Toxicity against human eye model assessed as irritation at 10 to 1000 uM; type: tissue-based; conditions: dose 10-1000 µM
SMILES,MIC80 (Kodamaea ohmeri),MFC (Candida parapsilosis),MIC80 (Candida parapsilosis),MFC (Paecilomyces lilacinus),MIC80 (Paecilomyces lilacinus),MIC80 (Aspergillus fumigatus [1]),Activity (Candida albicans [2]),Activity (Candida albicans [3]),Activity (Aspergillus fumigatus [4]),Activity [5],Activity [6]
CC[C@H](C)C[C@H](C)C[C@H](C)C[C@@H]1NC(=O)[C@H](C(C)C)N(C)C(=O)[C@@H]([C@H](C)CC)OC(=O)[C@H](C(C)(C)O)N(C)C(=O)[C@H](CC(C)C)NC(=O)[C@H](C(C)C)N(C)C(=O)[C@H]([C@H](C)CC)NC(=O)[C@@H]2CCCN2C(=O)CN(C)C1=O,2.5 µM,2.5 µM,2.5 µM,> 10 µM,2.5 µM,2.5 µM,Active,Active,Active,Non-Toxic,Non-Toxic
C[C@@H]1[C@H](O)[C@@H](C)/C=C/C=C/C=C/C=C/C=C/C=C/C=C/[C@H](O[C@@H]2O[C@H](C)[C@@H](O)[C@H](N)[C@@H]2O)C[C@@H]2O[C@](O)(C[C@@H](O)C[C@@H](O)[C@H](O)CC[C@@H](O)C[C@@H](O)CC(=O)O[C@H]1C)C[C@H](O)[C@H]2C(=O)O [AMPHOTERICIN B],1.3 µM,5 µM,1.3 µM,> 10 µM,> 10 µM,< 0.1 µM,,,,,
